Assays:
[1] = test system: OCI-LY3 cell line; test: OCI-LY3 cell proliferation inhibition (CTG); type: cell-based; details: Homo sapiens, incubated for 72 hours
Experimental: The tumor cell line used in this experiment was provided by Nanjing Cobioer Biotechnology Co., Ltd. See Table 13 below for specific information.
The tumor cell lines OCI-LY3 were used to detect the effect of the compound on inhibiting tumor cell proliferation in vitro. The OCI-LY3 cell line was cultured in the corresponding medium at 37° C. and 5% CO2, and the logarithmic growth phase cells were used in the experimental plating. The cells were collected and centrifuged at 800 rpm for 5 minutes, and the culture medium was re-suspended and spread in a 96-well plate. After incubating overnight in a 37° C., 5% CO2 incubator, the cells with different concentration gradients (10 μL of prepared diluent of the tested compound) were incubated for 72 hours, and the cell culture plates were incubated with CTG reagent at room temperature and away from light for 30 minutes, and then recovered to room temperature. 100 μL/hole of CTG solution was added into the biosafety cabinet away from light, and the plate shaker was shaken and mixed evenly away from light for 2 minutes, and incubated at room temperature away from light for 10 minutes. The luminescence values were read and recorded using the Perkin Elmer Envision 2104 MuLtilabel Reader.
The results of luminescence values measured at each drug concentration were normalized with the luminescence values of the blank control group, and the ratio of this value to the DMSO group was taken as the cell inhibition rate (%). Using GraphPad software, the logarithm of drug concentration (log drug concentration) versus inhibition rate was plotted, and the software automatically fitted and calculated IC50 value and 95% confidence limit value by log (inhibitor) vs. normalized response algorithm of nonlinear regression.

[2] = test system: human B-cell lymphoma OCI-LY10 cell subcutaneous xenograft tumor; test: Human B-cell lymphoma OCI-LY10 cell subcutaneous xenograft tumor mouse model; type: in vivo
Experimental: The objective of the experiment was to study the efficacy of WX001 as the test drug on human B-cell lymphoma OCI-LY10 cell subcutaneous xenograft tumor in CB17 SCID mouse model.
OCI-LY10 human B-cell lymphoma cells were cultured in a 37° C., 5% CO2 incubator.
OCI-LY10 tumor cells were cultured and passaged, and 0.2 mL (1×10^7 cells) OCI-LY10 cells were subcutaneously inoculated on the right back of each […] (with Matrigel, volume ratio 1:1), and the group administration was started when the average tumor volume reached 167 mm^3. The health status and death of animals were monitored every day, and routine examinations included observing the effects of tumor growth and drug treatment on daily behaviors of animals, such as behavioral activities, food intake and water intake, weight change (weight was measured twice a week), tumor size (tumor volume was measured twice a week), appearance signs or other abnormal conditions.
The experimental index was to investigate whether the tumor growth was inhibited, delayed or cured. Including the measurement of tumor volume (TV), and the calculation of the compound's anti-tumor efficacy using TGI (%) or the relative tumor proliferation rate T/C (%).
TV=0.5a×b^2, a and b represented the long diameter and short diameter of the tumor, respectively.
T/C %=TRTV/CRTV×100% (TRTV: RTV in treatment group; CRTV: RTV in negative control group). Relative tumor volume (RTV) was calculated according to the results of tumor measurement, and the calculation formula was RTV=Vt/V0, wherein V0 was the average tumor volume measured at the time of group administration (i.e., d0), Vt was the average tumor volume at a certain measurement, and TRTV and CRTV were the data taken at the same day.

[3] = biological target: T1, human IRAK4 (Homo sapiens, UniProt Q9NWZ3); test: In vitro IRAK4 kinase activity, 33P isotope-labeled kinase activity assay (Reaction Biology Corp); type: biochemical; details: 33P-ATP, 120 minutes at room temperature; read-out: IRAK4/IC50
T1 construct: purchased Reaction Biology Corp
T1 sequence (Q9NWZ3 1-460): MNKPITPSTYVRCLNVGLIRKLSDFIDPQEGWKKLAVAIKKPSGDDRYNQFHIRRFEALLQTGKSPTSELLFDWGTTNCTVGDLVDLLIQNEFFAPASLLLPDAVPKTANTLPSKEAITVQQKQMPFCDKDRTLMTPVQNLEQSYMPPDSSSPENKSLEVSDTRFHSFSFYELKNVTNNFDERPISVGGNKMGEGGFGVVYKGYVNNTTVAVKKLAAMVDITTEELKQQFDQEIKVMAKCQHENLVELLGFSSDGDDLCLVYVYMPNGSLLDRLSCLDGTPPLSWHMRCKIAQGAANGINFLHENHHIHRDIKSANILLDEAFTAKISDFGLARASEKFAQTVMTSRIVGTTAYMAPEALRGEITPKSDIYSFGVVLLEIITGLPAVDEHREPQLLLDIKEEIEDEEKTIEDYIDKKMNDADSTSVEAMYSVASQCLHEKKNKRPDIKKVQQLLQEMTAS
Experimental: The IC50 values were determined using ^33P isotope-labeled kinase activity assay (Reaction Biology Corp) to evaluate the inhibitory ability of the tested compounds on human IRAK4.
Buffer conditions: 20 mM Hepes (pH 7.5), 10 mM MgCl2, 1 mM EGTA, 0.02% Brij35, 0.02 mg/mL BSA, 0.1 mM Na3VO4, 2 mM DTT, 1% DMSO.
Test procedure: At room temperature, the tested compound was dissolved in DMSO to prepare a 10 mM solution for later use. The substrate was dissolved in a newly prepared buffer solution, and the tested IRAK4 kinase was added thereto and mixed evenly. The DMSO solution dissolved with the tested compound was added to the above reaction mixture mixed evenly using acoustic technique (Echo 550). After incubation for 15 minutes, ^33P-ATP was added to initiate the reaction.

[4] = 50 mpk, 18 days after the start of administration, p<0.001

For Cc1cc(-c2nc(C(=O)Nc3cn4cc(CCC(C)(C)O)nc4cc3N3CCCCC3)co2)ccn1 [WX001], the IC50 [1] was 1290 nM, the “anti-tumor effect compared with the solvent control group” value ([2]; 50 mpk, 18 days) was “significant anti-tumor effect” and the T/C value [2, 4] was 22%. For the same compound, the TGI value [2, 4] was 109%, the “drug tolerance (body weight, abnormality)” value ([2]; OCI-LY10 xenograft mice, 18 days of administration) was “well tolerated” and the IC50 [3] was 1 nM.

Source: patent US12459940B2, “Oxazole compound as multi-targeted inhibitor of IRAK4 and BTK” (SHANGHAI FOSUN PHARMACEUTICAL INDUSTRIAL DEVELOPMENT CO., …, priority 2019, dated 2025)
